Reference: PMC8820617, “Machine learning-driven identification of drugs inhibiting cytochrome P450 2C9” (PLoS Computational Biology, 2022)
“Also recorded” adds a separate entry of the source. Like-named read-outs stand apart in the source and are kept apart here.

How the values were obtained:
CYP2C9 supersomes [1] = target: T1, CYP2C9 supersomes (Homo sapiens, UniProt P11712); test: Inhibition of CYP2C9 on recombinant supersomes (diclofenac 4-hydroxylation, LC/MS-MS); conditions: for IC50: IC50 values determined with CYP2C9 supersomes, substrate diclofenac 5 μM, recombinant supersomes
T1 sequence (P11712 whole entry): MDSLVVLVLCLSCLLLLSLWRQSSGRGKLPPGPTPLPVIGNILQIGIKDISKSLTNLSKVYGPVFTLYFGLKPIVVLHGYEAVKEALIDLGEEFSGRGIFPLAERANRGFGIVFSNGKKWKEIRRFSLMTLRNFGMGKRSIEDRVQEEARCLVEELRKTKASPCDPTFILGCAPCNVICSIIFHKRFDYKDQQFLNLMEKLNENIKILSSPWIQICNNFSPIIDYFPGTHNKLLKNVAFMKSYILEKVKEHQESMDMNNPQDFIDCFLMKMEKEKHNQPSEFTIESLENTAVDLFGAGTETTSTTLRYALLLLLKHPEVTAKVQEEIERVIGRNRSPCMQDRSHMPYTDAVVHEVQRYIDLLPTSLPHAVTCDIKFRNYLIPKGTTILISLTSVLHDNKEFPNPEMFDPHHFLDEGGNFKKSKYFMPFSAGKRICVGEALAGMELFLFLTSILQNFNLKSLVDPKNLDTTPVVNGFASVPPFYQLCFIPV
Method: (§1) A CYP2C9-specific substrate (diclofenac) and recombinant supersomes were incubated with and without the study compounds (according to the protocol optimized by the Service Provider Admescope (Finland)). The concentrations of the studied compounds were 0.3, 1, 3, 10, 20, 30, 50, 60, 70, 90 and 100 μM. […] The enzymatic reactions were started after 6 min of preincubation by adding NADPH and terminated after 15 min by adding ice-cold acetonitrile. The supernatant was collected and centrifuged for analyses. The samples were analyzed by LC/MS-MS to determine the level of metabolites in the absence and presence of a candidate molecule. Spiked standard samples were not used, but quantification based on relative peak areas was performed (solvent control = 100%). The disappearance was evaluated as relative LC/MS peak areas, and the 0-min time points were marked as 100%. The disappearance rate was used to calculate the half-life and in vitro clearance. For details of the method, see S2 Text.
(§2) Details of analytical method for inhibition tests using CYP2C9 supersomes and calculation of IC50
(§3) Test compound concentrations: Test compound Test concentrations (µM)
(§4) Diclofenac at 5 µM for CYP2C9
(§5) Substrates and concentrations:
(§6) Instrumentation: Waters Acquity UPLC + Thermo TSQ Endura triple quadrupole MS
(§7) The IC50 value for the test compound was determined by fitting following equation to the data
(§8) A% = percentual activity remaining
(§9) Top = the upper plateau of percentual activity (constrained to 100)
(§10) Bottom = the lower plateau of percentual activity (constrained to 0)
(§11) [I] = inhibitor concentration
(§12) (1 picture or pasted object on this page, not shown here)

[2] = system: HepG2 cells expressing CYP2C9; test: Cytotoxicity (MTS assay) in HepG2 cells expressing CYP2C9; conditions: for min [c]: minimal concentration that increases the cytotoxicity: HepG2 cells expressing CYP2C9; for min [c]: minimal concentration that increases the cytotoxicity / Increased cytotoxicity in HepG2 cells expressing CYP2C9 (yes/no): threshold cell viability 80%; for Increased cytotoxicity in HepG2 cells expressing CYP2C9 (yes/no) / % living HepG2 cells expressing CYP2C9 after incubation with the min [c]: MTS assay; for Increased cytotoxicity in HepG2 cells expressing CYP2C9 (yes/no): compared with wild-type HepG2 cells; for % living HepG2 cells expressing CYP2C9 after incubation with the min [c]: at min [c] of the compound
CYP2C9 [3] = target: T2, CYP2C9 (Homo sapiens, UniProt P11712); test: Inhibition of CYP2C9 activity in HepG2 cells expressing CYP2C9 (P450-Glo CYP2C9 assay with Luciferin-H); conditions: for Inhibition of CYP2C9 activity in HepG2 cells (yes/no) / Dose-dependent inhibition (yes/no): HepG2 cells expressing CYP2C9; for Inhibition of CYP2C9 activity in HepG2 cells (yes/no): concentration range with cell viability > 80%; for Dose-dependent inhibition (yes/no): five-step dilution series 0.5 to 50 μM; for Any effect (inhibition of CYP2C9 activity and/or cytotoxicity on HepG2 cells expressing CYP2C9): over the range of concentrations used
T2 sequence (P11712 whole entry): as above

CYP2C9 supersomes [4] = target: T1, CYP2C9 supersomes; test: Metabolism assays with recombinant CYP2C9 supersomes (UPLC/HR-MS); conditions: incubation with recombinant CYP2C9 supersomes
CYP2C9 [5] = target: T2, CYP2C9
[6] = system: HepG2 cells expressing CYP2C9; conditions: human
CYP2C9 [7] = target: T2, CYP2C9; test: Inhibition of CYP2C9 on recombinant supersomes (diclofenac 4-hydroxylation, LC/MS-MS); conditions: human, recombinant CYP2C9 supersomes, probe diclofenac 5 μM (4-hydroxylation), IC50 values determined with CYP2C9 supersomes, substrate diclofenac 5 μM; recombinant supersomes
Method: as §1, §2, §3, §4, §5, §6, §7, §8, §9, §10, §11, §12

IC50 (CYP2C9 supersomes [1])	Dose-dependent inhibition (yes/no) (CYP2C9 [3])	Compound	min [c]: minimal concentration that increases the cytotoxicity [2]	Increased cytotoxicity in HepG2 cells expressing CYP2C9 (yes/no) [2]	% living HepG2 cells expressing CYP2C9 after incubation with the min [c] [2]	Inhibition of CYP2C9 activity in HepG2 cells (yes/no) (CYP2C9 [3])	other results
> 100 µM	no	CCN1CCN(Cc2ccc(Nc3ncc(F)c(-c4cc(F)c5nc(C)n(C(C)C)c5c4)n3)nc2)CC1 [Abemaciclib]	5 µM	yes	30%	no	Inhibition effect on CYP2C9 (in words) (CYP2C9 supersomes [1]; CYP2C9 supersomes): no direct inhibition; also recorded: No any inhibition effect; Metabolism by CYP2C9 (in words) (CYP2C9 supersomes [4]): metabolized by CYP2C9
46 µM	yes	CC(C)Oc1ccc(S(=O)(=O)N2CCN(c3ccc(-c4ncco4)c(OCC(=O)O)c3)CC2)cc1 [Asapiprant]	–	no	–	yes	–
–	no	CC(=O)N1CCN(CCOc2ccc(C3CCN(C4=Nn5c(nnc5C(F)(F)F)CC4)CC3)cc2)CC1 [Azd3514]	20 µM	yes	60%	no	–
17.7 µM	yes	O=c1[nH]c2ccccc2c(=O)n1CCCN1CCN(c2cccc(Cl)c2)CC1 [Cloperidone]	100 µM	yes	40%	yes	Inhibition effect on CYP2C9 (in words) (CYP2C9 supersomes [1]; CYP2C9 supersomes): strongly inhibit; Cytotoxicity after incubation with HepG2 cells expressing CYP2C9 (in words) [2]: increased cytotoxicity; Metabolism by CYP2C9 (in words) (CYP2C9 supersomes [4]): metabolized by CYP2C9
52 µM	yes	C[C@H](Nc1ncnc2[nH]cnc12)c1cc2cccc(Cl)c2c(=O)n1-c1ccccc1 [Duvelisib]	–	no	–	yes	–
–	no	CN(c1nccc(=O)[nH]1)C1CCN(c2nc3ccccc3n2Cc2ccc(F)cc2)CC1 [Mizolastine]	50 µM	yes	60%	no	–
–	no	CN(c1ncccc1CNc1nc(Nc2ccc3c(c2)CC(=O)N3)ncc1C(F)(F)F)S(C)(=O)=O [Pf-562271]	10 µM	yes	65%	yes	–
40 µM	yes	O=C1NCCN1CCN1CCC(c2cn(-c3ccc(F)cc3)c3ccc(Cl)cc23)CC1 [Sertindole]	10 µM	yes	60%	yes	–
–	no	CC(C)(C)C(=O)Oc1ccc(S(=O)(=O)Nc2ccccc2C(=O)NCC(=O)O)cc1 [Sivelestat]	–	no	–	no	Any effect (inhibition of CYP2C9 activity and/or cytotoxicity on HepG2 cells expressing CYP2C9) (CYP2C9 [3]): did not show any effect
11.8 µM	yes	CCCSc1nc(N[C@@H]2C[C@H]2c2ccc(F)c(F)c2)c2nnn([C@@H]3C[C@H](OCCO)[C@@H](O)[C@H]3O)c2n1 [Ticagrelor]	–	no	–	yes	–
< 18 µM	yes	Clc1ccc(Nc2nnc(Cc3ccncc3)c3ccccc23)cc1 [Vatalanib]	20 µM	yes	50%	yes	Inhibition effect on CYP2C9 (in words) (CYP2C9 supersomes [1]; CYP2C9 supersomes): strongly inhibit; IC50 at 15 min (CYP2C9 [7]): < 0.3 µM; Metabolism by CYP2C9 (in words) (CYP2C9 supersomes [4]): metabolized by CYP2C9
–	yes	Bifeprofen	75 µM	yes	50%	yes	–
–	no	Ciltoprazine	75 µM	yes	0%	yes	–

Compound	IC50 (CYP2C9 supersomes [1])	Dose-dependent inhibition (yes/no) (CYP2C9 [3])	min [c]: minimal concentration that increases the cytotoxicity [2]	Increased cytotoxicity in HepG2 cells expressing CYP2C9 (yes/no) [2]	% living HepG2 cells expressing CYP2C9 after incubation with the min [c] [2]	Inhibition of CYP2C9 activity in HepG2 cells (yes/no) (CYP2C9 [3])	other results
Cc1nc(Nc2ncc(C(=O)Nc3c(C)cccc3Cl)s2)cc(N2CCN(CCO)CC2)n1 [Dasatinib]	–	yes	20 µM	yes	45%	yes	–
COc1ccc(OC(=O)N(CC(=O)O)Cc2ccc(OCCc3nc(-c4ccccc4)oc3C)cc2)cc1 [Muraglitazar]	–	no	–	no	–	no	Any effect (inhibition of CYP2C9 activity and/or cytotoxicity on HepG2 cells expressing CYP2C9) (CYP2C9 [3]): did not show any effect
Cc1ccccc1-n1c(/C=C/c2ccccn2)nc2ccccc2c1=O [Piriqualone]	10.9 µM	yes	75 µM	yes	0%	yes	–
O=C(O[C@H]1CN2CCC1CC2)N(Cc1cc(F)c(F)c(F)c1)c1cccc(F)c1 [Tarafenacin]	> 100 µM	–	–	–	–	–	Inhibition effect on CYP2C9 (in words) (CYP2C9 supersomes [1]; recombinant enzyme): weak inhibition effect; Dose-dependent inhibition (yes/no) (CYP2C9 [5]): no; Inhibition of CYP2C9 activity in HepG2 cells (yes/no) (CYP2C9 [5]): yes; % living HepG2 cells expressing CYP2C9 after incubation with the min [c] [6]: 0%; min [c]: minimal concentration that increases the cytotoxicity [6]: 50 µM
